According to patent US4452793A, “29-Fluorophytosterol termiticides, compositions and methods of use therefor” (The Research Foundation of State University of New York, priority 1983, dated 1984):
≈ marks a conversion by molar mass, not a printed value.

What was measured:
Manduca sexta [1] = experiment: Sterol distribution in experimental hornworms (capillary GC of gut-purged prepupae); format: in vivo, tobacco hornworm (Manduca sexta); conditions: fed at 50 ppm in diet; mean relative area % of GC, 4 hornworms, S.D. in parentheses
Protocol: (§1) The recrystallized 29-fluorosterols are dissolved in dichloromethane and then coated onto the wheat germ to give a final concentration to 50 ppm (w/v) in the articifical diet. Controls receive either 50 ppm of stigmasterol or no additional sterols. The dose are varied in subsequent experiments. Twenty first instar tobacco hornworms larvae (Manduca sexta, seventh day after egg collection) are then placed on a 0.5-g slab of diet in a 1-oz dish; this is designated as Day 0 of feeding. Larvae were maintained at 65% relative humidity and 26° C. on a 17L/7D long day light regime. Diets are changed and larvae are weighed and staged daily. The mean survival, weight gain, and developmental periods of the experimental hornworms are shown relative to a group of twenty control larvae in FIG. 1.
Four gut-purged prepupae from each experiment are frozen and later are analyzed individually for sterol composition. Each hornworm is homogenized (1:1 chloroform-methanol), the lipids is saponified, and the non-saponifiable lipis are chromatographed to give the sterol fraction. Analysis by capillary GC (Durabon DB-5 or DB-1701) allowed resolution an accurate quantification of cholesterol, desmosterol, campesterol, stiosterol and fucosterol from test insects. The results, present in Table 1, illustrate the insect metabolism.

Manduca sexta [2] = experiment: Insecticide bioassay of 29-fluorophytosterols in tobacco hornworm larvae (artificial diet); format: in vivo, tobacco hornworm (Manduca sexta); conditions: for LC50: Manduca sexta, po, 504 h, day 21, read-out: Dose for 50% reduction, survival (larvae, day 21) (LC50); for LC50 / Dose for 50% reduction, maximum larval weight (EC50) / Dose for 50% reduction, pupation (EC50): parts per million (w/v) in the final diet
Protocol: as §1
Inequality signs indicate that the effect indicated was beyond the range of doses tested and could not be reliably obtained by extrapolation of the log concentration vs. probit response plots. All values are reported as parts per million (w/v) in the final diet.

CC(C)[C@@H](CCF)CC[C@@H](C)[C@H]1CC[C@H]2[C@@H]3CC=C4C[C@@H](O)CC[C@]4(C)[C@H]3CC[C@]12C [29-fluoroclionosterol]
Relative percent sterol: campesterol (Manduca sexta [1]): 9.5(1) % | Relative percent sterol: cholesterol (Manduca sexta [1]): 82.5(2) % | Relative percent sterol: desmosterol (Manduca sexta [1]): 2.0(2) % | Relative percent sterol: sitosterol (Manduca sexta [1]): 5.9(1) %

CC(C)/C(=C/CF)CC[C@@H](C)[C@H]1CC[C@H]2[C@@H]3CC=C4C[C@@H](O)CC[C@]4(C)[C@H]3CC[C@]12C [29-fluorofucosterol]
LC50 (Manduca sexta [2]): 48 µg/mL (≈ 111 µM) | Dose for 50% reduction, maximum larval weight (EC50) (Manduca sexta [2]): 26 ppm | Dose for 50% reduction, pupation (EC50) (Manduca sexta [2]): 31 ppm | Relative percent sterol: campesterol (Manduca sexta [1]): 10.0(2) % | Relative percent sterol: cholesterol (Manduca sexta [1]): 82.2(2) % | Relative percent sterol: desmosterol (Manduca sexta [1]): 1.0(1) % | Relative percent sterol: sitosterol (Manduca sexta [1]): 5.8(2) %

CC(C)[C@H](/C=C/[C@@H](C)[C@H]1CC[C@H]2[C@@H]3CC=C4C[C@@H](O)CC[C@]4(C)[C@H]3CC[C@]12C)CCF [29-fluoroporiferasterol]
Relative percent sterol: campesterol (Manduca sexta [1]): 16.3(2) % | Relative percent sterol: cholesterol (Manduca sexta [1]): 65.6(8) % | Relative percent sterol: desmosterol (Manduca sexta [1]): 5.8(2) % | Relative percent sterol: sitosterol (Manduca sexta [1]): 12.3(5) %

CC(C)[C@H](CCF)CC[C@@H](C)[C@H]1CC[C@H]2[C@@H]3CC=C4C[C@@H](O)CC[C@]4(C)[C@H]3CC[C@]12C [29-fluorositosterol]
LC50 (Manduca sexta [2]): 300 µg/mL (≈ 693 µM) | Dose for 50% reduction, maximum larval weight (EC50) (Manduca sexta [2]): 110 ppm | Dose for 50% reduction, pupation (EC50) (Manduca sexta [2]): 150 ppm | Relative percent sterol: campesterol (Manduca sexta [1]): 7.8(3) % | Relative percent sterol: cholesterol (Manduca sexta [1]): 82.4(8) % | Relative percent sterol: desmosterol (Manduca sexta [1]): 5.2(8) % | Relative percent sterol: sitosterol (Manduca sexta [1]): 4.6(4) %

CC(C)[C@@H](/C=C/[C@@H](C)[C@H]1CC[C@H]2[C@@H]3CC=C4C[C@@H](O)CC[C@]4(C)[C@H]3CC[C@]12C)CCF [29-fluorostigmasterol]
LC50 (Manduca sexta [2]): 4 µg/mL (≈ 9.29 µM) | Survivors present for analysis (Manduca sexta [2]; hornworms fed at 50 ppm): No survivors | Dose for 50% reduction, maximum larval weight (EC50) (Manduca sexta [2]): 1 ppm | Dose for 50% reduction, pupation (EC50) (Manduca sexta [2]): 1 ppm
